This is an account of results in PubChem BioAssay AID540270 (Broad Institute, 2011).

Each structure is given as a SMILES string. Calls of active or inactive are those of the source. The rule behind the calls is not given here.

The target of one assay is Heat shock protein HSP 90-alpha (Homo sapiens) (UniProt P07900). In words: growth inhibition of yeast carrying human Hsp90, dose response, counter-screen, plate reader, cherry-picked samples (AID 540270). To be noted: yeast expressing human Hsp90, growth. Background: The purpose of a counterscreen is to sort out artefacts and off-target activity.
Broadly, the AC50 is the concentration at which the activity in the assay is half-maximal. As for `O=C1CC(c2ccccc2)CC(O)=C1C=Nc1cccc(Cl)c1` (centres undefined), the AC50 is 4.28 µM. Turning to `C[CH2][Hg][S]c1ccccc1C(=O)O`, the AC50 was 2.31 µM.

Staying with this assay, now noted: yeast expressing human Hsp90, growth, at 12 µM (top of the series).
Consider `CCN(CC)c1ccc(/C=C2/SC(=O)N(C(C)C)C2=O)o1`, for which the “activity, negative = inhibition” value is “inactive”. On to `O=C(/C(=C\c1ccccc1)c1nc2ccccc2[nH]1)c1ccc(Cl)cc1`, for which the “activity, negative = inhibition” value is “inactive”.

Still in this assay, the particulars now being: yeast expressing human Hsp90, growth, at 26 µM (top of the series).
Consider `Cc1ccc(N2C(=O)C3C4C=CC(CNC(=S)Nc5cccc(Cl)c5)(O4)C3C2=O)cc1` (centres undefined), for which the “activity, negative = inhibition” value was “inactive”. Consider `Cc1ccc(N=c2ssnc2Cl)cc1`, for which the “activity, negative = inhibition” value was “inactive”. As for `CCOc1cc(S(=O)(=O)NC2CCCCCC2)ccc1F`, the “activity, negative = inhibition” value was “inactive”. `NC(=O)/C=C\C(=O)Nc1cccc(C(F)(F)F)c1`: the “activity, negative = inhibition” value was “inactive”.

Regarding `Cc1ccc(OCc2n[nH]c(=S)n2C2CCCCC2)cc1`, the “activity, negative = inhibition” value is “inactive”. `COc1ccc(C(=O)Nc2cc(C(=O)c3ccccc3)c(C)oc2=O)cc1`: the “activity, negative = inhibition” value is “inactive”. As to `COc1cc(N=c2ssnc2Cl)c(OC)cc1Cl`, the “activity, negative = inhibition” value is “inactive”. For the compound `Cc1csc(CNc2ncnc3ccc(-c4cccc(Cl)c4)cc23)c1`, the “activity, negative = inhibition” value was “inactive”. For the compound `Cc1ccc(N2C(=O)C3C4C=CC(CNC(=S)Nc5ccc(F)cc5)(O4)C3C2=O)cc1` (centres undefined), the “activity, negative = inhibition” value is “inactive”. With `CCOC(=O)c1cc([N+](=O)[O-])cc([N+](=O)[O-])c1Sc1ncnc2nc[nH]c12`, the “activity, negative = inhibition” value was “inactive”.

Turning to `O=C(/C(=C/c1cccc(Cl)c1)c1nc2ccccc2[nH]1)c1ccccc1`, the “activity, negative = inhibition” value was “inactive”. On to `CCOc1ccc(S(=O)(=O)NCc2ccccn2)c(C)c1C`, for which the “activity, negative = inhibition” value is “inactive”. `O=C(O)/C=C/c1cn(-c2ccccc2)nc1-c1cc2ccccc2o1`: the “activity, negative = inhibition” value is “inactive”.

Turning to `O=C(CSCC(=O)N1CCCCC1)Nc1nc(-c2ccc(Cl)s2)cs1`, the “activity, negative = inhibition” value is “inactive”. `O=C(O)c1cccc(N/N=C/c2cc(Br)cc(Br)c2O)c1`: the “activity, negative = inhibition” value is “inactive”. As to `Cc1cc(Br)c2c(c1)/C(=C/C(=O)c1cccs1)C(=O)N2`, the “activity, negative = inhibition” value is “inactive”. Consider `O=C1/C(=C\c2ccc(Cl)cc2)CCC1CNc1ccc(Cl)cc1` (centres undefined), for which the “activity, negative = inhibition” value was “inactive”. Regarding `O=C1C=CC(=O)N1Cc1ccccc1`, the “activity, negative = inhibition” value is “inactive”. Consider `CCCC1CCC(c2ccc(/C(N)=N/O)cc2)CC1` (centres undefined), for which the “activity, negative = inhibition” value is “inactive”. Still for that read-out and setting: the entry for `CC1(C)N=C(SCC(=O)Nc2ccc(Cl)cc2Cl)C(c2ccccc2)=N1` is “inactive”; for `Cc1ccc(/C=C2/NC(=O)N(Cc3ccc(Br)cc3)C2=O)o1` it is “inactive”. Turning to `CC(=NNC(=S)N1CC2CCC(CC2)C1)c1nccs1`, the “activity, negative = inhibition” value was “inactive”. In the case of `O=C1S/C(=C/c2ccc(N3CCOCC3)o2)C(=O)N1Cc1c(F)cccc1Cl`, the “activity, negative = inhibition” value is “inactive”. For the compound `O=C(COc1ccc(Cl)cc1)NC1=NN(c2ccccc2)C(=O)C1`, the “activity, negative = inhibition” value is “inactive”. Regarding `Cc1ccc(-c2cc(-c3ccc(F)cc3)c(C#N)c(N)n2)o1`, the “activity, negative = inhibition” value is “inactive”.

With `Cc1ccc(O)c(NC(=S)NC(=O)c2ccc(-c3ccc(Cl)cc3)o2)c1`, the “activity, negative = inhibition” value was “inactive”.

As for `CC(C)OC(=O)c1ccc(NCc2cc(O)ccc2O)cc1Cl`, the “activity, negative = inhibition” value is “inactive”. Turning to `CN(C)c1ccc(-c2cc(O)c3ncccc3c2)cc1`, the “activity, negative = inhibition” value was “inactive”. For `O=C(/C(=C/c1ccc(Cl)cc1)c1nc2ccccc2[nH]1)c1ccccc1`, the “activity, negative = inhibition” value is “inactive”.

With `COc1ccc(NC(=S)Nc2ccc3snnc3c2)cc1`, the “activity, negative = inhibition” value was “inactive”.
